In patent US20240150365A1 (Hotspot Therapeutics, Inc., priority 2022, published 2024):
Like-named read-outs stand apart in the source and are kept apart here.

What was measured:
[1] = target: T1, MALT1 (Homo sapiens, UniProt Q9UDY8); assay: MALT-1 Fluorogenic Peptide Cleavage Assay (MALT1 inhibition assay); format: biochemical; conditions: Avi-tagged FL MALT-1, Ac-LRSR-AMC peptide substrate, 30 min pre-incubation, 90 min reaction
T1 construct: Avi-tagged FL MALT-1 (Pharmaron, stored at −70° C.); Avi tag
T1 sequence (Q9UDY8 1-824): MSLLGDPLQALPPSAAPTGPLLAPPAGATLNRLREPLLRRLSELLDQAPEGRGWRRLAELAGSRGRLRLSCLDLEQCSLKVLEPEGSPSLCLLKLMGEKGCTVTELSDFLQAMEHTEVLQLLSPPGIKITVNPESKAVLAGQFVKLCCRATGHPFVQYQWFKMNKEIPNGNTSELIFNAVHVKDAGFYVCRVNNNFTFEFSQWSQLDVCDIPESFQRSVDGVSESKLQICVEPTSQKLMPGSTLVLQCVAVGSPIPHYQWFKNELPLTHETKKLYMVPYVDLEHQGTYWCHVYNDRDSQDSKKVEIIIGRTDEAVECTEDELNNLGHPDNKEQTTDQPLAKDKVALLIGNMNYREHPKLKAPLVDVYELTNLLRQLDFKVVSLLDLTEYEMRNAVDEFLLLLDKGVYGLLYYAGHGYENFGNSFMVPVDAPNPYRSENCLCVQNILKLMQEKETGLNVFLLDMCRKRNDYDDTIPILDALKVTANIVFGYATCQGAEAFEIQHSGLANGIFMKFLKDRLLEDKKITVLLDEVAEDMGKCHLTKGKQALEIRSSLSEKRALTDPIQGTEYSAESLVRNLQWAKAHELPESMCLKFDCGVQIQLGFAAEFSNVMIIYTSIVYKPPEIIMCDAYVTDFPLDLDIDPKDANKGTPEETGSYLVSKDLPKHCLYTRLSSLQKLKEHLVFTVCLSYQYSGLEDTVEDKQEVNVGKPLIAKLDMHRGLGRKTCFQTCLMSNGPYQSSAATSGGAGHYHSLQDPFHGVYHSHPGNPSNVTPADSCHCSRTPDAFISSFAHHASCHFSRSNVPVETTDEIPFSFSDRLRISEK
Summary of the method: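 Avi-tagged full-length MALT1 pre-incubated 30 min with compound (2% DMSO final), then cleavage of Ac-LRSR-AMC followed over 90 min at room temperature. AMC fluorescence read at 342/441 nm; % inhibition fitted to sigmoidal curves for IC50.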

[2] = test system: NF-kB; assay: NF-kB reporter assay in Jurkat cells stimulated with aCD3/aCD28/PMA; format: cell-based; conditions: Homo sapiens, Jurkat, read-out: NF-kB Reporter Assay IC50
Summary of the method: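 Jurkat cells (25,000/well, serum-free RPMI 1640) preincubated 1 hr at 37° C with serially diluted compound, then stimulated with aCD3/aCD28/PMA (final 5 μg/mL, 5 μg/mL, 0.03 μg/mL) for 4 hr. Reporter luminescence read with One-Glo; IC50 derived.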

[3] = Jurkat cells, 1 hr compound incubation, aCD3/aCD28/PMA stimulation 4 hr, One-Glo readout

| IC50 [1] | IC50 [2, 3] | SMILES | IC50 [2] |
| --- | --- | --- | --- |
| < 0.4 µM | < 0.4 µM | COc1ccc2cnn(C)c2c1NS(=O)(=O)c1ccc(-n2cc(C)[nH]c2=O)nc1 [Example I-237, N-(6-methoxy-1-methyl-1H-indazol-7-yl)-6-(4-methyl-2-oxo-2,3-dihydro-1H-imidazol-1-yl)pyridine-3-sulfonamide] |  |
| < 0.4 µM | < 0.4 µM | CCOC(=O)c1cnn(-c2ccc(S(=O)(=O)Nc3c(OC)ccc4cnn(C)c34)cn2)c1C [Example I-238, ethyl 1-{5-[(6-methoxy-1-methylindazol-7-yl)sulfamoyl]pyridin-2-yl}-5-methylpyrazole-4-carboxylate] |  |
| 1 to 2.5 µM | > 2.5 µM | COc1ccc2cnn(C)c2c1NS(=O)(=O)c1ccc(-c2nc(C)nn2C)nc1 [Example I-239, 6-(1,3-dimethyl-1H-1,2,4-triazol-5-yl)-N-(6-methoxy-1-methyl-1H-indazol-7-yl)pyridine-3-sulfonamide] |  |
| < 0.4 µM | < 0.4 µM | COc1ccc2c(F)nn(C)c2c1NS(=O)(=O)c1ccc(-n2cc(Cl)cn2)nc1 [Example I-240, 6-(4-chloro-1H-pyrazol-1-yl)-N-(3-fluoro-6-methoxy-1-methyl-1H-indazol-7-yl)pyridine-3-sulfonamide] |  |
| 0.4 to 1 µM | < 0.4 µM | COc1ccc2cnn(C)c2c1NS(=O)(=O)c1ccc(-n2ncc(CO)c2C)nc1 [Example I-242, 6-[4-(hydroxymethyl)-5-methylpyrazol-1-yl]-N-(6-methoxy-1-methylindazol-7-yl)pyridine-3-sulfonamide] |  |
| > 2.5 µM | < 0.4 µM | Cn1ncc2cccc(NS(=O)(=O)c3ccc(-n4ncc5c4CCOC5)nc3)c21 [Example I-245, N-(1-methylindazol-7-yl)-6-{4H,6H,7H-pyrano[4,3-c]pyrazol-1-yl}pyridine-3-sulfonamide] |  |
| > 2.5 µM | < 0.4 µM | CCOC(=O)c1cnn(-c2ccc(S(=O)(=O)Nc3cccc4cnn(C)c34)cn2)c1C [Example I-246, ethyl 5-methyl-1-(5-(N-(1-methyl-1H-indazol-7-yl)sulfamoyl)pyridin-2-yl)-1H-pyrazole-4-carboxylate] |  |
| > 2.5 µM | < 0.4 µM | Cn1ncc2cccc(NS(=O)(=O)c3ccc(-n4cc5c(n4)CCOC5)nc3)c21 [Example I-247, N-(1-methylindazol-7-yl)-6-{4H,6H,7H-pyrano[4,3-c]pyrazol-2-yl}pyridine-3-sulfonamide] |  |
| > 2.5 µM | > 2.5 µM | CN[C@@H]1CCCC[C@H]1N(C)c1ccc(S(=O)(=O)Nc2cccc3cnn(C)c23)cn1 [Example I-248, 6-{methyl[(1R,2R)-2-(methylamino)cyclohexyl]amino}-N-(1-methylindazol-7-yl)pyridine-3-sulfonamide] |  |
| > 2.5 µM | < 0.4 µM | COC1(c2cnn(-c3ccc(S(=O)(=O)Nc4cccc5cnn(C)c45)cn3)c2)CC1 [Example I-251, 6-(4-(1-methoxycyclopropyl)-1H-pyrazol-1-yl)-N-(1-methyl-1H-indazol-7-yl)pyridine-3-sulfonamide] |  |
| > 2.5 µM | < 0.4 µM | Cc1c(CO)cnn1-c1ccc(S(=O)(=O)Nc2cccc3cnn(C)c23)cn1 [Example I-252, 6-[4-(hydroxymethyl)-5-methylpyrazol-1-yl]-N-(1-methylindazol-7-yl)pyridine-3-sulfonamide] |  |
| > 2.5 µM | 0.4 to 1 µM | Cn1ncc2cccc(NS(=O)(=O)c3ccc(-c4cnn(C5COC5)c4)nc3)c21 [Example I-253, N-(1-methyl-1H-indazol-7-yl)-6-(1-(oxetan-3-yl)-1H-pyrazol-4-yl)pyridine-3-sulfonamide] |  |
| > 2.5 µM | < 0.4 µM | Cc1nc(-c2ccc(S(=O)(=O)Nc3cccc4cnn(C)c34)cn2)cn1C(F)(F)F [Example I-264, 6-(2-methyl-1-(trifluoromethyl)-1H-imidazol-4-yl)-N-(1-methyl-1H-indazol-7-yl)pyridine-3-sulfonamide] |  |
| > 2.5 µM | < 0.4 µM | Cn1ncc2cccc(NS(=O)(=O)c3ccc(-c4cnc(C5CC5)s4)nc3)c21 [Example I-265, 6-(2-cyclopropyl-1,3-thiazol-5-yl)-N-(1-methylindazol-7-yl)pyridine-3-sulfonamide] |  |
| > 2.5 µM | 0.4 to 1 µM | Cn1ncc2cccc(NS(=O)(=O)c3ccc(-c4cnc(C(C)(C)O)s4)nc3)c21 [Example I-267, 6-[2-(2-hydroxypropan-2-yl)-1,3-thiazol-5-yl]-N-(1-methylindazol-7-yl)pyridine-3-sulfonamide] |  |
| > 2.5 µM | < 0.4 µM | Cn1ncc2cccc(NS(=O)(=O)c3ccc(-c4cnn5c4CCC5)nc3)c21 [Example I-269, 6-(5,6-dihydro-4H-pyrrolo[1,2-b]pyrazol-3-yl)-N-(1-methyl-1H-indazol-7-yl)pyridine-3-sulfonamide] |  |
| > 2.5 µM | < 0.4 µM | Cn1ncc2cccc(NS(=O)(=O)c3ccc(-c4cnn5c4COCC5)nc3)c21 [Example I-270, 6-(6,7-dihydro-4H-pyrazolo[5,1-c][1,4]oxazin-3-yl)-N-(1-methyl-1H-indazol-7-yl)pyridine-3-sulfonamide] |  |
| > 2.5 µM | < 0.4 µM | Cn1ncc2cccc(NS(=O)(=O)c3ccc(-c4cnn5c4CCCC5)nc3)c21 [Example I-272, N-(1-methyl-1H-indazol-7-yl)-6-(4,5,6,7-tetrahydropyrazolo[1,5-a]pyridin-3-yl)pyridine-3-sulfonamide] |  |
| < 0.4 µM | 0.4 to 1 µM | COc1ccc2c(F)nn(C)c2c1NS(=O)(=O)c1ccc(-n2cc(C(F)(F)F)cn2)nc1 [Example I-273, N-(3-fluoro-6-methoxy-1-methyl-1H-indazol-7-yl)-6-(4-(trifluoromethyl)-1H-pyrazol-1-yl)pyridine-3-sulfonamide] |  |
| > 2.5 µM | < 0.4 µM | Cc1c(-c2ccc(S(=O)(=O)Nc3cccc4cnn(C)c34)cn2)cnn1C1COC1 [Example I-274] |  |
| > 2.5 µM | 0.4 to 1 µM | Cc1nn(C2COC2)cc1-c1ccc(S(=O)(=O)Nc2cccc3cnn(C)c23)cn1 [Example I-275] |  |

| SMILES | IC50 [1] | IC50 [2, 3] | IC50 [2] |
| --- | --- | --- | --- |
| Cn1ncc2cccc(NS(=O)(=O)c3ccc(-c4cnc(C(F)F)s4)nc3)c21 [Example I-241, 6-(2-(difluoromethyl)thiazol-5-yl)-N-(1-methyl-1H-indazol-7-yl)pyridine-3-sulfonamide] | 0.4 to 1 µM |  | < 0.4 µM |
| COc1ncc(-c2ccc(S(=O)(=O)Nc3cccc4cnn(C)c34)cn2)s1 [Example I-243, 6-(2-methoxythiazol-5-yl)-N-(1-methyl-1H-indazol-7-yl)pyridine-3-sulfonamide] | > 2.5 µM |  | < 0.4 µM |
| Cn1ncc2cccc(NS(=O)(=O)c3ccc(-c4cnc(N5CCOCC5)s4)nc3)c21 [Example I-244, N-(1-methyl-1H-indazol-7-yl)-6-(2-morpholinothiazol-5-yl)pyridine-3-sulfonamide] | > 2.5 µM |  | < 0.4 µM |
| COc1ccc2c(F)nn(C)c2c1NS(=O)(=O)c1ccc(-n2cc(C)cn2)nc1 [Example I-249, N-(3-fluoro-6-methoxy-1-methyl-1H-indazol-7-yl)-6-(4-methyl-1H-pyrazol-1-yl)pyridine-3-sulfonamide] | < 0.4 µM |  | 0.4 to 1 µM |
| Cn1ncc2cccc(NS(=O)(=O)c3ccc(-c4cnc(Cl)s4)nc3)c21 [Example I-250, 6-(2-chlorothiazol-5-yl)-N-(1-methyl-1H-indazol-7-yl)pyridine-3-sulfonamide] | 1 to 2.5 µM |  | < 0.4 µM |
| CC(C)c1ncc(-c2ccc(S(=O)(=O)Nc3cccc4cnn(C)c34)cn2)s1 [Example I-266, 6-(2-isopropyl-1,3-thiazol-5-yl)-N-(1-methylindazol-7-yl)pyridine-3-sulfonamide] | > 2.5 µM |  | < 0.4 µM |
| COC(C)(C)c1ncc(-c2ccc(S(=O)(=O)Nc3cccc4cnn(C)c34)cn2)s1 [Example I-268, 6-(2-(2-methoxypropan-2-yl)thiazol-5-yl)-N-(1-methyl-1H-indazol-7-yl)pyridine-3-sulfonamide] | > 2.5 µM |  | < 0.4 µM |
| Cc1ncc(-c2ccc(S(=O)(=O)Nc3cccc4cnn(C)c34)cn2)n1C(F)(F)F [Example I-271, 6-(2-methyl-1-(trifluoromethyl)-1H-imidazol-5-yl)-N-(1-methyl-1H-indazol-7-yl)pyridine-3-sulfonamide] | > 2.5 µM |  | < 0.4 µM |
